Experimental data as given in patent US6562595B2, “Dominant selectable marker for gene transformation and disruption in yeasts” (McGill University, priority 2000, dated 2003).

Key:
[1] = system: C. albicans strain SC5314; assay: Halo assay (zones of inhibition on confluent plates); assay type: cell-based, Candida albicans
Description: (§1) Confluent plates of either S. cerevisiae diploid strain SEY6210 (left panel) or C. albicans strain SC5314 (right panel) were spotted with 5 μl of destomycin (DSM), blasticidin (BSN), nourseothricin (NST), geneticin (G418), zeocin (ZEO), and puromycin (PUR) using concentrations of 10 mg/ml, 1 mg/ml, 0.5 mg/ml, 0.25 mg/ml, 0.125 mg/ml, and 0.06 mg/ml (top to bottom). Zones of inhibition were examined after overnight growth; clear halos indicate antifungal activity;
(§2) To explore the possibility of developing a dominant selectable marker for C. albicans, geneticin, the aminoglycoside used in dominant selection studies in S. cerevisiae was initially examined for antifungal activity in C. albicans (FIG. 1). […] When a number of alternative commercially available antibiotics including zeocin, destomycin, nourseothricin, blasticidin, and puromycin were tested for antifungal activity, the present inventors discovered that C. albicans was sensitive to nourseothricin at a concentration of about 200 μg/ml. […] C. albicans was also found to be sensitive to blasticidin. […] (Webster et al., 1983, Gene 26:243-252).

[2] = system: S. cerevisiae diploid strain SEY6210; assay: as above; assay type: cell-based, Saccharomyces cerevisiae; settings: at concentration dramatically below that at which geneticin acts
Description: as §1, §2

[3] = system: S. cerevisiae strain maintaining the geneticin resistance gene KanR; assay: Nourseothricin sensitivity of geneticin-resistant (KanR) strain; assay type: cell-based, Saccharomyces cerevisiae; settings: S. cerevisiae strain with KanR
Source text: The present inventors also compared the sensitivity of NST to geneticin in S. cerevisiae.

[4] = system: C. albicans CAI4 maintaining pRC18 vector and parent strain SC5314; assay: Growth on nourseothricin-supplemented plates; assay type: cell-based, Candida albicans; settings: 400 μg/ml; irrespective of carbon source (1% Casamino acid or YEP 2% glucose)
Description: ASTHMA, PSMP, and vector alone (lacking either SAT expression module) plasmids were transformed into CAI4 and directly selected on YPD-drug supplemented plates (400 μg/ml) prior to being restreaked onto a YPD plate containing 400 μg/ml nourseothricin. A) Six independent ASTHMA transformants, as well as the negative controls CAI4, containing pRC18, and the parent strain, SC5314 are shown after two days growth at 30° C. on YPD plates containing 400 μg/ml NST. B) Four independent PSMP transformants, as well as the negative controls, CAI4 maintaining pRC18, and SC5314, grown on YPD (left plate), and either derepressing conditions (1% Casamino acid+300 μg/ml NST, center plate), or repressing conditions (YPD+300 μg/ml NST, right plate) for PCK1 promoter-dependent expression of SAT. Plates were incubated two days at 30° C.; and
The composition of a YPD medium for culturing yeast contains 1% yeast extract, 2% bactopeptone and 2% glucose. Agar was added in an amount of 2% to the medium in the case of a plate form. Transformant were selected on Ura+ protophy and subsequently streaked onto nourseothricin-supplemented plates containing either 1% Casamino acid (derepressing conditions) or YEP containing 2% glucose (repressing conditions) as alternative carbon sources. […]

Molecule	antifungal (fungicidal) activity by halo assay ([1]; C. albicans SC5314, 5 μl spots, 10 to 0.06 mg/ml, overnight growth)	antifungal activity by halo assay [2]	cross-resistance conferred by KanR [3]	concentration at which C. albicans is sensitive ([1]; C. albicans)	effect of medium on antifungal effectiveness ([1]; rich, high-salt YPD plates versus minimal YNB plates)	growth of strains lacking SAT in the presence of the drug [4]
CN(CC[C@H](N)CC(=O)N[C@H]1C=C[C@H](n2ccc(N)nc2=O)O[C@@H]1C(=O)O)C(=N)N [blasticidin]	sensitive					
nourseothricin		potent antifungal activity	failed to confer resistance	about 200 μg/ml	dramatically more effective on rich media	failed to grow
